Here are results for 8 compounds from ChEMBL document CHEMBL1201862, “PubChem BioAssay data set” (2004).

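Exposure lasted 48 hours, with cells grown in 96-well plates and compounds tested at five concentrations. Abbreviation: GI50, concentration required for 50% inhibition of growth.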 The source made the active and inactive calls. No stated cut-off is given here; in the data, active = GI50 up to about 1.1 µM and inactive = higher. A value given as a limit tells only on which side of the number the result lay.

Some test systems named below: A549; OVCAR-8; NCI/ADR-RES; U-251; HCT-15; CCRF-CEM; NCI-H23; SK-MEL-2; RXF 393; SW-620; COLO 205; LOX IMVI; KM12; ACHN; UACC-257; HOP-62; RPMI-8226; OVCAR-4; NCI-H522; SR.
What all share (assay): inhibition of tumour cell growth, NCI panel, 48 h

Take `CC1C2(C)OCC(C#N)(C(=N)O2)C1(C#N)C#N` (configuration not stated): the GI50 in the assay on A549 is > 100 µM (inactive); with OVCAR-8, 23.9 µM (inactive); with NCI/ADR-RES, 41.2 µM (inactive); with U-251, 16.3 µM (inactive); in the assay with HCT-15 it was 13.5 µM; in the assay on CCRF-CEM it was 22.8 µM (inactive). The GI50 is 29.3 µM (inactive) with NCI-H23; 14.4 µM (inactive) in the assay on SK-MEL-2; 27.4 µM (inactive) in the assay with RXF 393; 25.9 µM (inactive) in the assay with SW-620; 14.7 µM (inactive) with COLO 205; 17.7 µM (inactive) with LOX IMVI. For the same compound, the GI50 in the assay on KM12 was 36.2 µM (inactive); with ACHN it was 36.5 µM (inactive); in the assay with UACC-257 it was 23.9 µM (inactive).

As to `CCCc1cc(COC)c(C#N)c(O)n1`, the GI50 with A549 is > 100 µM (inactive); with OVCAR-8, > 100 µM (inactive); in the assay with HOP-62, > 100 µM (inactive); in the assay with NCI/ADR-RES it was > 100 µM (inactive); with U-251, > 100 µM (inactive); in the assay on HCT-15 it was > 100 µM. Also, the GI50 with CCRF-CEM, with NCI-H23, in the assay on RPMI-8226, in the assay with RXF 393, in the assay on OVCAR-4 and in the assay with SW-620 was > 100 µM (inactive) throughout. Moreover, the GI50 in the assay with COLO 205, in the assay with LOX IMVI, with KM12, in the assay on ACHN, in the assay on UACC-257 and in the assay with NCI-H522 was > 100 µM (inactive) throughout.

Turning to `CC(C)NC(=O)OCCN=C1c2ccccc2C(Br)C(Br)c2ccccc21` (configuration not stated), the GI50 in the assay on A549 was 24.7 µM (inactive); in the assay with OVCAR-8 it was 8 µM (inactive); in the assay on HOP-62, 14.5 µM (inactive); in the assay on NCI/ADR-RES, 16 µM (inactive); with U-251, 10 µM (inactive); in the assay with HCT-15 it was 9.75 µM. Further, the GI50 is 0.46 µM (active) in the assay with CCRF-CEM; 15.6 µM (inactive) with NCI-H23; 23.7 µM (inactive) in the assay on SK-MEL-2; 7.83 µM (inactive) in the assay on RPMI-8226; 2.87 µM (inactive) in the assay on RXF 393; 6.93 µM (inactive) with OVCAR-4. For the same compound, the GI50 is 3.76 µM (inactive) with SW-620; 5.13 µM (inactive) in the assay on COLO 205; 2.94 µM (inactive) in the assay on LOX IMVI; 21.8 µM (inactive) in the assay on KM12; 7.6 µM (inactive) in the assay on ACHN; 7.35 µM (inactive) in the assay with UACC-257. Also, in the assay with NCI-H522, the GI50 is 1.68 µM (inactive).

In the case of `NC1=CN(Cc2ccccc2)C2=N/C(=C\c3ccccc3)C(=O)N12`, the GI50 in the assay with A549 was > 100 µM (inactive); with OVCAR-8 it was > 100 µM (inactive); in the assay on HOP-62, > 100 µM (inactive); in the assay with NCI/ADR-RES, > 100 µM (inactive); with U-251 it was > 100 µM (inactive); in the assay on HCT-15, > 100 µM. Besides, the GI50 with CCRF-CEM is 50 µM (inactive); in the assay on NCI-H23, > 100 µM (inactive); with SK-MEL-2, > 100 µM (inactive); in the assay with RPMI-8226 it was 71.3 µM (inactive); in the assay on RXF 393, > 100 µM (inactive); in the assay with OVCAR-4 it was 38.2 µM (inactive). Moreover, the GI50 with SW-620 was > 100 µM (inactive); in the assay with COLO 205, > 100 µM (inactive); in the assay with LOX IMVI, > 100 µM (inactive); in the assay on KM12, 96.8 µM (inactive); in the assay with ACHN, > 100 µM (inactive); in the assay with UACC-257, 40.1 µM (inactive). Also, in the assay on NCI-H522, the GI50 is 51.3 µM (inactive).

Take `O=C(CCN1CCN(c2cccc(Cl)c2)CC1)N1CCc2c([nH]c3ccccc23)C1c1cccnc1` (configuration not stated): the GI50 is 6.28 µM (inactive) with A549; 6.55 µM (inactive) in the assay on OVCAR-8; 9.1 µM (inactive) in the assay with HOP-62; 7.08 µM (inactive) in the assay with U-251; 3.4 µM in the assay on HCT-15; 5.56 µM (inactive) in the assay on CCRF-CEM. The GI50 in the assay on NCI-H23 is 7.89 µM (inactive); in the assay with SK-MEL-2, 6.12 µM (inactive); in the assay with RPMI-8226, 4.72 µM (inactive); with SR, 1.75 µM (inactive); with RXF 393 it was 7.4 µM (inactive); in the assay with OVCAR-4, 2.58 µM (inactive). Further, the GI50 was > 10 µM (inactive) with SW-620; 3.66 µM (inactive) in the assay on COLO 205; 3.52 µM (inactive) with LOX IMVI; 3.05 µM (inactive) with KM12; 4.78 µM (inactive) with ACHN; 2.81 µM (inactive) in the assay with UACC-257. The GI50 in the assay with NCI-H522 is 4.19 µM (inactive).

As for `N#CCCN(CCC#N)C(=O)c1cccc(C(=O)N(CCC#N)CCC#N)c1`, the GI50 with A549 is > 69.7 µM (inactive); with OVCAR-8, > 50 µM (inactive); with HOP-62, > 100 µM (inactive); with U-251, > 45.8 µM (inactive); in the assay on HCT-15, > 100 µM; in the assay on CCRF-CEM, > 100 µM (inactive). Also, the GI50 with NCI-H23 is > 41.9 µM (inactive); in the assay on SK-MEL-2, > 100 µM (inactive); in the assay with RPMI-8226, > 50.4 µM (inactive); in the assay on SR, > 44.2 µM (inactive); with RXF 393 it was 4.07 µM (inactive); with OVCAR-4 it was > 100 µM (inactive). The GI50 with SW-620 was 13.4 µM (inactive); in the assay on COLO 205, > 70.5 µM (inactive); with LOX IMVI it was 16.4 µM (inactive); with KM12 it was > 93.3 µM (inactive); in the assay on ACHN, > 100 µM (inactive); in the assay with UACC-257, > 100 µM (inactive). Besides, the GI50 with NCI-H522 is > 100 µM (inactive).

`Cc1ccc(S(=O)(=O)N2CCSCCSCCSCCN(S(=O)(=O)c3ccc(C)cc3)CC2)cc1`: the GI50 with A549, with OVCAR-8, in the assay on HOP-62, in the assay with NCI/ADR-RES, in the assay on U-251 and in the assay on NCI-H23 was > 100 µM (inactive) throughout. Further, the GI50 in the assay with SK-MEL-2, with RPMI-8226, in the assay with RXF 393, in the assay with OVCAR-4, in the assay with SW-620 and with COLO 205 was > 100 µM (inactive) throughout. Besides, the GI50 in the assay on KM12, with ACHN and with UACC-257 was > 100 µM (inactive) each time.

For the compound `CS/C(=N\C#N)NC1CC(n2cc(C)c(=O)[nH]c2=O)OC1CO` (configuration not stated), the GI50 in the assay with A549 is > 100 µM (inactive); in the assay with OVCAR-8 it was > 100 µM (inactive); in the assay with HOP-62 it was > 100 µM (inactive); in the assay on NCI/ADR-RES it was > 100 µM (inactive); in the assay on U-251, > 100 µM (inactive); in the assay with HCT-15, > 100 µM. Moreover, the GI50 in the assay with CCRF-CEM, in the assay with NCI-H23, in the assay on SK-MEL-2, in the assay on RXF 393, with OVCAR-4 and with SW-620 was > 100 µM (inactive) in each case. For the same compound, the GI50 in the assay on COLO 205, in the assay on LOX IMVI, with KM12, in the assay on ACHN, with UACC-257 and in the assay on NCI-H522 was > 100 µM (inactive) in each case.
